Some test systems named below: Escherichia coli UB1005; Ramulariopsis gossypii; Candida krusei CBS 573; Penicillium expansum; Aspergillus niger; Escherichia coli UTI89; Pseudomonas aeruginosa; Klebsiella pneumoniae; Acinetobacter baumannii.
What all share (assay): ≥ marks a high value that may be exact or a test limit, other limits are often not marked, values filed in µg/mL are converted to µM
Test [1] concerns Salmonella enterica subsp. enterica serovar Pullorum C79-13.
Test [2] deals with Salmonella enterica subsp. enterica serovar Typhimurium C77-31.
The test system of test [3] is Enterococcus faecalis ATCC 29212.
The test system of test [4] is Staphylococcus aureus ATCC 43300.
Test [5] concerns Pseudomonas aeruginosa ATCC 27853.
Test [6] deals with Staphylococcus epidermidis ATCC 12228.
The test system of test [7] is Bacillus subtilis CMCC 63501.
Test [8] relates to Staphylococcus aureus ATCC 29213.
Test [9] has as its system Candida albicans ATCC 90028.
Test [10] deals with Xanthomonas campestris pv. citri.
Test [11] deals with Escherichia coli ATCC 25922.
The subject of test [12] is Cryptococcus neoformans ATCC 28957.
For test [13], the system named is Bacillus subtilis ATCC 23857.
The test system of test [14] is Saccharomyces cerevisiae SZMC 0644.
Test [15] relates to Candida albicans ATCC 10231.
Test [16] deals with Candida parapsilosis CBS 604.
For test [17], the system named is Escherichia coli K12 MG1655.
Test [18] relates to Staphylococcus epidermidis.
For test [19], the system named is Salmonella enterica subsp. enterica serovar Typhimurium ATCC 14028.
Test [20] has as its system Klebsiella pneumoniae ATCC 700603.
Test [21] relates to Klebsiella pneumoniae ATCC BAA-2146.
For test [22], the system named is Cryptococcus neoformans ATCC 208821.
Test [23] deals with Klebsiella pneumoniae ATCC 13883.
In test [24] the test system is Bacillus subtilis ATCC 6051.
The subject of test [25] is Acinetobacter baumannii ATCC 19606.

Molecules are shown by their SMILES. Converted amounts (≈) assume the structure as drawn. “And” between values parts separate entries of the source, which are not always exact repeats. Equal values may be shown once.

In general, MIC refers to the smallest concentration in the dilution series that meets the test's criterion for growth inhibition. Higher therefore signals weaker potency. On to `CC[C@H](C)[C@H](NC(=O)[C@H](CCCN=C(N)N)NC(=O)[C@H](CCCCN)NC(=O)[C@H](Cc1ccccc1)NC(=O)[C@H](CCC(=O)O)NC(=O)[C@H](CCCCN)NC(=O)CN)C(=O)N[C@H](C(=O)N[C@@H](CCCCN)C(=O)N[C@@H](Cc1c[nH]c2ccccc12)C(=O)N1CCC[C@H]1C(=O)N[C@@H](Cc1c[nH]c2ccccc12)C(=O)N[C@@H](Cc1c[nH]c2ccccc12)C(=O)N1CCC[C@H]1C(=O)N[C@@H](Cc1c[nH]c2ccccc12)C(=O)N[C@@H](CCCN=C(N)N)C(=O)N[C@@H](CCCN=C(N)N)C(N)=O)C(C)C` [GKEFKRIVKWPWWPWRR], for which the MIC in [1] worked out at 2 µM (≈ 4.71 µg/mL); in test [2] it was 4 µM (≈ 9.42 µg/mL); in [3] it was 4 µM (≈ 9.42 µg/mL); in test [4], 2 µM (≈ 4.71 µg/mL); in [5], 16 µM (≈ 37.7 µg/mL); in test [6] it was 8 µM (≈ 18.8 µg/mL). In addition, the MIC in [7] was 4 µM (≈ 9.42 µg/mL); with Escherichia coli UB1005, 2 µM (≈ 4.71 µg/mL); in test [8], 4 µM and 8 µM.
`CC[C@H](C)[C@H](NC(=O)[C@H](Cc1ccccc1)NC(=O)[C@@H](NC(=O)[C@H](CCC(N)=O)NC(=O)[C@H](Cc1ccc(O)cc1)NC(=O)[C@H](CCCN=C(N)N)NC(=O)[C@@H](NC(=O)[C@H](CC(C)C)NC(=O)[C@H](CCCCN)NC(=O)[C@H](CCC(N)=O)NC(=O)[C@H](CC(C)C)NC(=O)[C@H](CCC(=O)O)NC(=O)[C@H](CCCCN)NC(=O)[C@H](Cc1ccccc1)NC(=O)[C@H](CC(C)C)NC(=O)[C@H](CC(C)C)NC(=O)CN)[C@@H](C)CC)[C@@H](C)CC)C(=O)NCC(=O)N[C@@H](CCCCN)C(N)=O` [GLLFKELQKLIRYQIFIGK]: the minimal inhibitory concentration (MIC) in [9] was ≥ 64 µM; in test [10] it was ≥ 128 µM; in the test with Ramulariopsis gossypii, ≥ 64 µM; in [5], 128 µM (≈ 295 µg/mL); in [11], 26.7 µM (≈ 61.5 µg/mL); in test [12] it was ≥ 64 µM. Further, the minimum inhibitory concentration (MIC) in [13] came out at 16 µM (≈ 36.9 µg/mL).
`CC[C@H](C)[C@H](N)C(=O)N[C@@H](C)C(=O)N[C@H](C(=O)N[C@@H](CO)C(=O)N1CCC[C@H]1C(=O)N[C@@H](Cc1ccc(O)cc1)C(=O)N[C@@H](Cc1ccc(O)cc1)C(=O)N[C@@H](C)C(=O)N[C@H]1CSSC[C@@H](C(=O)N2CCC[C@H]2C(=O)O)NC(=O)[C@H](CC(N)=O)NC1=O)[C@@H](C)O` [IATSPYYACNCP]: the MIC in test [14] is ≥ 76.8 µM; in test [15], > 76.8 µM; in [16], ≥ 76.8 µM; against Candida krusei CBS 573, ≥ 76.8 µM.
As to `CC(C)C[C@H](NC(=O)[C@H](Cc1ccccc1)NC(=O)[C@H](CCCN=C(N)N)NC(=O)[C@H](CCCN=C(N)N)NC(=O)[C@H](C)NC(=O)[C@H](Cc1c[nH]c2ccccc12)NC(=O)[C@H](Cc1c[nH]c2ccccc12)NC(=O)[C@H](C)NC(=O)[C@H](CCCN=C(N)N)NC(=O)[C@H](Cc1ccccc1)NC(=O)[C@H](Cc1ccccc1)NC(=O)[C@H](CCCCN)NC(=O)[C@@H](N)CCCCN)C(=O)N[C@@H](CCCCN)C(N)=O` [KKFFRAWWARRFLK], the MIC against Penicillium expansum and with Aspergillus niger was 6.44 µM (≈ 12.5 µg/mL) throughout.
With `CC[C@H](C)[C@H](NC(=O)[C@H](CCCCN)NC(=O)[C@H](CCC(N)=O)NC(=O)[C@H](Cc1c[nH]c2ccccc12)NC(=O)[C@@H](NC(=O)[C@H](CCCCN)NC(=O)[C@@H](N)CCCCN)[C@@H](C)CC)C(=O)N[C@@H](CCCCN)C(=O)N[C@@H](CC(N)=O)C(=O)N[C@@H](Cc1ccccc1)C(=O)N[C@@H](Cc1ccccc1)C(=O)N[C@@H](CCC(N)=O)C(=O)N[C@@H](CCCCN)C(=O)N[C@@H](CC(C)C)C(=O)O` [KKIWQKIKNFFQKL], the MIC in [17] worked out at 6.25 µM (≈ 11.6 µg/mL); in test [18], 29 µM (≈ 53.6 µg/mL); against Escherichia coli UTI89, 6.25 µM (≈ 11.6 µg/mL); in test [19] it was 50 µM (≈ 92.5 µg/mL).
In the case of `CC[C@H](C)[C@@H]1NC(=O)CNC(=O)[C@H](CCCN=C(N)N)NC(=O)[C@H](Cc2ccc(O)cc2)NC(=O)[C@@H]2CSSC[C@H](NC1=O)C(=O)N[C@@H](Cc1ccc(O)cc1)C(=O)N[C@@H](CCCN=C(N)N)C(=O)N[C@@H](CCCN=C(N)N)C(=O)N[C@H](C(=O)N[C@@H](C)C(=O)O)CSSC[C@H](NC(=O)[C@H](Cc1c[nH]c3ccccc13)NC(=O)[C@@H](N)CCCCN)C(=O)N[C@@H](Cc1ccccc1)C(=O)N[C@@H](CCCN=C(N)N)C(=O)N[C@@H](C(C)C)C(=O)N2` [KWCFRVCYRGICYRRCA], the MIC in [9] is 1.83 µM (≈ 3.99 µg/mL); in test [20], 0.115 µM (≈ 0.25 µg/mL); in test [21], 0.115 µM (≈ 0.25 µg/mL); in [4], 0.229 µM (≈ 0.499 µg/mL); in [5] it was 0.115 µM (≈ 0.25 µg/mL); in [11], 0.0069 µM (≈ 0.015 µg/mL). The MIC in [22] amounted to 0.115 µM (≈ 0.25 µg/mL); in [23] it was 0.0572 µM (≈ 0.125 µg/mL); in [24] it was 0.0069 µM (≈ 0.015 µg/mL); against Pseudomonas aeruginosa, 0.229 µM (≈ 0.499 µg/mL); in the test on Klebsiella pneumoniae, 1.83 µM (≈ 3.99 µg/mL); in the test with Acinetobacter baumannii, 0.0572 µM (≈ 0.125 µg/mL). The minimum inhibitory concentration (MIC) in [25] stood at 0.0572 µM (≈ 0.125 µg/mL).
Regarding `CC[C@H](C)[C@@H]1NC(=O)CNC(=O)[C@H](CCCN=C(N)N)NC(=O)[C@H](Cc2ccc(O)cc2)NC(=O)[C@H](CO)NC(=O)[C@H](C(C)C)NC(=O)[C@H](CCCN=C(N)N)NC(=O)[C@H](Cc2ccccc2)NC(=O)[C@@H](NC(=O)[C@H](Cc2c[nH]c3ccccc23)NC(=O)[C@@H](N)CCCCN)CSSC[C@@H](C(=O)N[C@@H](CCCN=C(N)N)C(=O)O)NC(=O)[C@H](CCCN=C(N)N)NC(=O)[C@H](CCCN=C(N)N)NC(=O)[C@H](Cc2ccc(O)cc2)NC(=O)[C@H](C)NC1=O` [KWCFRVSYRGIAYRRCR], the minimal inhibitory concentration (MIC) in [9] was found to be 0.901 µM (≈ 2 µg/mL); in test [20] it was 7.21 µM (≈ 16 µg/mL); in test [21], 3.6 µM (≈ 7.99 µg/mL); in test [4], 7.21 µM (≈ 16 µg/mL); in test [5] it was 3.6 µM (≈ 7.99 µg/mL); in test [11], 0.45 µM (≈ 0.999 µg/mL). In addition, the MIC in test [22] is 0.225 µM (≈ 0.5 µg/mL); in test [23] it was 1.8 µM (≈ 4 µg/mL); in test [24] it was 0.0563 µM (≈ 0.125 µg/mL); with Pseudomonas aeruginosa it was 7.21 µM (≈ 16 µg/mL); in the test with Klebsiella pneumoniae, 7.21 µM (≈ 16 µg/mL); in the test on Acinetobacter baumannii, 0.45 µM (≈ 0.999 µg/mL). Also, in [25], the minimum inhibitory concentration (MIC) was found to be 0.225 µM (≈ 0.5 µg/mL).
In the case of `CC[C@H](C)[C@H](NC(=O)[C@@H]1CSSC[C@H](NC(=O)[C@H](CCCCN)NC(=O)CNC(=O)[C@H](CO)NC(=O)[C@@H](NC(=O)[C@@H](NC(=O)[C@H](CCCCN)NC(=O)[C@H](CO)NC(=O)[C@H](CCCCN)NC(=O)[C@H](CC(=O)O)NC(=O)[C@H](CO)NC(=O)[C@@H]2CCCN2C(=O)CNC(=O)[C@H](CO)NC(=O)[C@H](Cc2cnc[nH]2)NC(=O)[C@H](Cc2ccc(O)cc2)NC(=O)[C@@H](N)CCCCN)C(C)C)[C@@H](C)CC)C(=O)N[C@@H](CCC(=O)O)C(=O)N[C@@H](Cc2c[nH]c3ccccc23)C(=O)N[C@@H](CCC(N)=O)C(=O)NCC(=O)NCC(=O)N[C@@H](CCC(N)=O)C(=O)N[C@@H](CC(C)C)C(=O)N[C@@H](CC(N)=O)C(=O)N1)C(=O)N[C@@H](C)C(=O)N[C@H](C(=O)O)[C@@H](C)O` [KYHSGPSDKSKVISGKCEWQGGQLNCIAT], the minimal inhibitory concentration (MIC) was ≥ 32 µM in [14], > 32 µM in [15], ≥ 32 µM in test [16] and ≥ 32 µM against Candida krusei CBS 573.

(Values after DBAASP.)
